Test results: ChEMBL document CHEMBL3885861, “Open TG-GATES”

Species: Rattus norvegicus
Assay: Open TG-GATES - Regimen: Single
Assay type: toxicity, organism-based, Sprague-Dawley
Set-up: regimen Single, gender Male, age 6 weeks
Conditions: in vivo, po, route gavage; for APTT / Bas / Eos / Fbg / Hb / Ht / Lym / MCH / MCHC / MCV / Mono / Neu / Plat / RBC / Ret / WBC: tissue Blood; for KIDNEY_L / KIDNEY_R / KIDNEY_TOTAL: tissue Kidney; for LIVER: tissue Liver; for ALP / ALT / AST / BUN / CRE / Ca / Cl / DBIL / GLC / IP / K / LDH / Na / PL / RALB / TBIL / TC / TG / TP / gamma-GTP: tissue Plasma
[1] = 0 mg/kg, 3 h, dose level Control
[2] = 0 mg/kg, 6 h, dose level Control
[3] = 0 mg/kg, 9 h, dose level Control
[4] = 0 mg/kg, 24 h, dose level Control
[5] = 450 mg/kg, 24 h, dose level Low

## CC(=O)Oc1ccccc1C(=O)O [ASPIRIN]
[1]
  TERMINAL_BW: 221 g
  APTT: 17.5 s
  Bas: 0.2%
  Eos: 1.2%
  Fbg: 226.6 mg/dL
  Hb: 13.4 g/dL
  Ht: 37.1%
  Lym: 75.4%
  MCH: 22 pg
  MCHC: 36.1%
  MCV: 60.8 fL
  Mono: 2.2%
  Neu: 20%
  Plat: 118.6 x10_4/uL
  RBC: 611.4 x10_4/ul
  Ret: 8%
  WBC: 87.8 x10_2/uL
  KIDNEY_L: 1 g
  KIDNEY_R: 1 g
  KIDNEY_TOTAL: 2 g
  LIVER: 9.9 g
  ALP: 895.2 IU/L
  ALT: 34.8 IU/L
  AST: 72.4 IU/L
  BUN: 9.8 mg/dL
  CRE: 0.4 mg/dL
  Ca: 10.7 mg/dL
  Cl: 103.8 meq/L
  DBIL: 0.066 mg/dL
  GLC: 198.2 mg/dL
  IP: 9.6 mg/dL
  K: 3.9 meq/L
  LDH: 186.2 IU/L
  Na: 142.4 meq/L
  PL: 138.4 mg/dL
  RALB: 3.4 g/dL
  TBIL: 0.1 mg/dL
  TC: 77 mg/dL
  TG: 48.8 mg/dL
  TP: 5.5 g/dL
  gamma-GTP: 1.2 IU/L
[2]
  TERMINAL_BW: 217.3 g
  APTT: 17.7 s
  Bas: 0%
  Eos: 0.8%
  Fbg: 235 mg/dL
  Hb: 13.9 g/dL
  Ht: 38.3%
  Lym: 77.2%
  MCH: 22 pg
  MCHC: 36.3%
  MCV: 60.5 fL
  Mono: 2.4%
  Neu: 18.4%
  Plat: 131.2 x10_4/uL
  RBC: 632.8 x10_4/ul
  Ret: 7.8%
  WBC: 104.9 x10_2/uL
  KIDNEY_L: 0.9 g
  KIDNEY_R: 0.9 g
  KIDNEY_TOTAL: 1.9 g
  LIVER: 9 g
  ALP: 815 IU/L
  ALT: 32 IU/L
  AST: 68.4 IU/L
  BUN: 9 mg/dL
  CRE: 0.4 mg/dL
  Ca: 10.6 mg/dL
  Cl: 103.2 meq/L
  DBIL: 0.07 mg/dL
  GLC: 185.8 mg/dL
  IP: 9.5 mg/dL
  K: 3.8 meq/L
  LDH: 208.8 IU/L
  Na: 141.2 meq/L
  PL: 139.2 mg/dL
  RALB: 3.4 g/dL
  TBIL: 0.1 mg/dL
  TC: 80.4 mg/dL
  TG: 62.8 mg/dL
  TP: 5.5 g/dL
  gamma-GTP: 1 IU/L
[3]
  TERMINAL_BW: 214.9 g
  APTT: 17.3 s
  Bas: 0%
  Eos: 0.8%
  Fbg: 224 mg/dL
  Hb: 14 g/dL
  Ht: 38.7%
  Lym: 80.2%
  MCH: 22.2 pg
  MCHC: 36.3%
  MCV: 61.1 fL
  Mono: 2.4%
  Neu: 15.2%
  Plat: 121.8 x10_4/uL
  RBC: 632.8 x10_4/ul
  Ret: 8%
  WBC: 88.9 x10_2/uL
  KIDNEY_L: 0.9 g
  KIDNEY_R: 0.9 g
  KIDNEY_TOTAL: 1.8 g
  LIVER: 8.6 g
  ALP: 795.2 IU/L
  ALT: 31.2 IU/L
  AST: 64.8 IU/L
  BUN: 9.4 mg/dL
  CRE: 0.4 mg/dL
  Ca: 10.4 mg/dL
  Cl: 104 meq/L
  DBIL: 0.066 mg/dL
  GLC: 206.6 mg/dL
  IP: 10 mg/dL
  K: 3.8 meq/L
  LDH: 205.6 IU/L
  Na: 141.4 meq/L
  PL: 128.6 mg/dL
  RALB: 3.4 g/dL
  TBIL: 0.1 mg/dL
  TC: 69.2 mg/dL
  TG: 46.2 mg/dL
  TP: 5.6 g/dL
  gamma-GTP: 1.2 IU/L
[4]
  TERMINAL_BW: 234.6 g
  APTT: 18.4 s
  Bas: 0.8%
  Eos: 1%
  Fbg: 222.8 mg/dL
  Hb: 13.8 g/dL
  Ht: 37.7%
  Lym: 77.2%
  MCH: 22.6 pg
  MCHC: 36.6%
  MCV: 61.7 fL
  Mono: 2.8%
  Neu: 17.8%
  Plat: 132 x10_4/uL
  RBC: 611.8 x10_4/ul
  Ret: 7.1%
  WBC: 109.6 x10_2/uL
  KIDNEY_L: 1 g
  KIDNEY_R: 1 g
  KIDNEY_TOTAL: 2 g
  ALP: 1023.4 IU/L
  ALT: 39 IU/L
  AST: 72.4 IU/L
  BUN: 15.8 mg/dL
  CRE: 0.4 mg/dL
  Ca: 10.6 mg/dL
  Cl: 103.6 meq/L
  DBIL: 0.062 mg/dL
  GLC: 204.2 mg/dL
  IP: 7.8 mg/dL
  K: 3.9 meq/L
  LDH: 207.2 IU/L
  Na: 141.2 meq/L
  PL: 153.4 mg/dL
  RALB: 3.5 g/dL
  TBIL: 0.1 mg/dL
  TC: 74 mg/dL
  TG: 124.4 mg/dL
  TP: 5.6 g/dL
  gamma-GTP: 1.2 IU/L
450 mg/kg, 3 h, dose level Low
  TERMINAL_BW: 217.1 g
  APTT: 19.8 s
  Bas: 0%
  Eos: 1%
  Fbg: 230.2 mg/dL
  Hb: 13.8 g/dL
  Ht: 38.5%
  Lym: 70%
  MCH: 21.2 pg
  MCHC: 36%
  MCV: 59 fL
  Mono: 3.4%
  Neu: 24.4%
  Plat: 136.3 x10_4/uL
  RBC: 653 x10_4/ul
  Ret: 7.3%
  WBC: 89.4 x10_2/uL
  KIDNEY_L: 0.9 g
  KIDNEY_R: 0.9 g
  KIDNEY_TOTAL: 1.8 g
  LIVER: 8.7 g
  ALP: 1084 IU/L
  ALT: 45 IU/L
  AST: 85.8 IU/L
  BUN: 14.4 mg/dL
  CRE: 0.4 mg/dL
  Ca: 9 mg/dL
  Cl: 103.6 meq/L
  DBIL: 0.06 mg/dL
  GLC: 189.2 mg/dL
  IP: 8.7 mg/dL
  K: 3.3 meq/L
  LDH: 228.8 IU/L
  Na: 141.2 meq/L
  PL: 96.6 mg/dL
  RALB: 3.6 g/dL
  TBIL: 0.1 mg/dL
  TC: 60.4 mg/dL
  TG: 20.4 mg/dL
  TP: 5.7 g/dL
  gamma-GTP: 1.2 IU/L
450 mg/kg, 6 h, dose level Low
  TERMINAL_BW: 218.6 g
  APTT: 21.5 s
  Bas: 0%
  Eos: 0.8%
  Fbg: 230.4 mg/dL
  Hb: 13.9 g/dL
  Ht: 38.2%
  Lym: 71%
  MCH: 22.2 pg
  MCHC: 36.3%
  MCV: 61.1 fL
  Mono: 3.2%
  Neu: 24%
  Plat: 124.8 x10_4/uL
  RBC: 626.8 x10_4/ul
  Ret: 8.1%
  WBC: 90.8 x10_2/uL
  KIDNEY_L: 1 g
  KIDNEY_R: 1 g
  KIDNEY_TOTAL: 2 g
  LIVER: 9 g
  ALP: 834.4 IU/L
  ALT: 34.8 IU/L
  AST: 72.6 IU/L
  BUN: 14.6 mg/dL
  CRE: 0.4 mg/dL
  Ca: 9.2 mg/dL
  Cl: 105 meq/L
  DBIL: 0.056 mg/dL
  GLC: 204 mg/dL
  IP: 7.7 mg/dL
  K: 3.4 meq/L
  LDH: 221.2 IU/L
  Na: 141 meq/L
  PL: 113.2 mg/dL
  RALB: 3.5 g/dL
  TBIL: 0.1 mg/dL
  TC: 67.8 mg/dL
  TG: 32.8 mg/dL
  TP: 5.6 g/dL
  gamma-GTP: 1 IU/L
450 mg/kg, 9 h, dose level Low
  TERMINAL_BW: 215.1 g
  APTT: 21.4 s
  Bas: 0%
  Eos: 0.8%
  Fbg: 220.4 mg/dL
  Hb: 13.6 g/dL
  Ht: 38.2%
  Lym: 68.2%
  MCH: 21.9 pg
  MCHC: 35.5%
  MCV: 61.8 fL
  Mono: 2.2%
  Neu: 28%
  Plat: 124.6 x10_4/uL
  RBC: 619.4 x10_4/ul
  Ret: 8.4%
  WBC: 94.9 x10_2/uL
  KIDNEY_L: 1 g
  KIDNEY_R: 1 g
  KIDNEY_TOTAL: 1.9 g
  LIVER: 7.9 g
  ALP: 828 IU/L
  ALT: 34.4 IU/L
  AST: 77.4 IU/L
  BUN: 13.2 mg/dL
  CRE: 0.4 mg/dL
  Ca: 9.1 mg/dL
  Cl: 106.8 meq/L
  DBIL: 0.05 mg/dL
  GLC: 201.2 mg/dL
  IP: 8.3 mg/dL
  K: 3.4 meq/L
  LDH: 210.2 IU/L
  Na: 141.2 meq/L
  PL: 93.4 mg/dL
  RALB: 3.3 g/dL
  TBIL: 0.096 mg/dL
  TC: 55.2 mg/dL
  TG: 12.6 mg/dL
  TP: 5.4 g/dL
  gamma-GTP: 0.8 IU/L
[5]
  TERMINAL_BW: 217.9 g
  APTT: 24.7 s
  Bas: 0.4%
  Eos: 1%
  Fbg: 222 mg/dL
  Hb: 14.4 g/dL
  Ht: 38.6%
  Lym: 79.8%
  MCH: 22.7 pg
  MCHC: 37.2%
  MCV: 60.9 fL
  Mono: 2.2%
  Neu: 16.2%
  Plat: 129 x10_4/uL
  RBC: 633.6 x10_4/ul
  Ret: 7.2%
  WBC: 106.4 x10_2/uL
  KIDNEY_L: 1 g
  KIDNEY_R: 1 g
  KIDNEY_TOTAL: 1.9 g
  LIVER: 9.2 g
  ALP: 905.4 IU/L
  ALT: 43.4 IU/L
  AST: 82.4 IU/L
  BUN: 15.8 mg/dL
  CRE: 0.5 mg/dL
  Ca: 10.4 mg/dL
  Cl: 104.6 meq/L
  DBIL: 0.048 mg/dL
  GLC: 196.4 mg/dL
  IP: 8.6 mg/dL
  K: 3.7 meq/L
  LDH: 199.2 IU/L
  Na: 141 meq/L
  PL: 107 mg/dL
  RALB: 3.5 g/dL
  TBIL: 0.092 mg/dL
  TC: 56 mg/dL
  TG: 39.6 mg/dL
  TP: 5.6 g/dL
  gamma-GTP: 1 IU/L
